From ChEMBL document CHEMBL1136669, “Synthesis of aza and oxaglutamyl-p-nitroanilide derivatives and their kinetic studies with gamma-glutamyltranspeptidase” (Bioorg Med Chem Lett, 2003)

Target: Glutathione hydrolase 1 proenzyme (Rattus norvegicus, UniProt P07314)
Assay: Compound was tested for the competitive inhibition of rat kidney gamma-glutamyltranspeptidase (gamma-GGT)

Sequence of Glutathione hydrolase 1 proenzyme (P07314 1-379 limits assumed): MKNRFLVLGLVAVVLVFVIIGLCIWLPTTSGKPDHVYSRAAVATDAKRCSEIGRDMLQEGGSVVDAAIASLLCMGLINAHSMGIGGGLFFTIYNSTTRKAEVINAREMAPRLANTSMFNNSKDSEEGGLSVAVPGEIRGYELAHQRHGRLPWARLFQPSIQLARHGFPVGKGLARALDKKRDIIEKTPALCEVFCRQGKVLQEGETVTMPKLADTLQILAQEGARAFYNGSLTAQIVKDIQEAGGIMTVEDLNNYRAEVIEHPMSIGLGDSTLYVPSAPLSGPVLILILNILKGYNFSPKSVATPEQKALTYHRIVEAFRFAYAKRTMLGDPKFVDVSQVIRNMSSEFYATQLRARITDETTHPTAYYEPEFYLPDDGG
Sequence of Glutathione hydrolase 1 proenzyme (P07314 380-568 limits assumed): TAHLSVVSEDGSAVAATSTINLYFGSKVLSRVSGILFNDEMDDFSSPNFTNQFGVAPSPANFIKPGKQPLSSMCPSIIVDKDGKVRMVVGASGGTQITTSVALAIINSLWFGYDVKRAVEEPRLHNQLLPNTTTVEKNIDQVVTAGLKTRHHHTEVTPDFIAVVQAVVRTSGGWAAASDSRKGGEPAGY

Ki comp: 3.8 mM
SMILES: Cl.N[C@@H](CNC(=O)Nc1ccc([N+](=O)[O-])cc1)C(=O)O
